Read-outs that look alike come from different tables or passages of the source.
Tests used:
Type in all cases: in vivo
[1] = system: larvae of brown planthopper (Nilaparvata lugens Stahl); assay: Test Example 1: insecticidal activity against larvae of brown planthopper; conditions: 120 h, third-instar larvae, 25° C., 5 days after treatment
Procedure: Insecticidal activity against larvae of brown planthopper (Nilaparvata lugens Stahl).
(§1) Testing method: Five rice seedlings of the 1.5 leaf age were dipped in a test composition of 400 ppm concentration for 30 seconds. After air-drying, the seedlings were placed in a glass tube containing 1 ml of water and infested with five third-instar larvae of brown planthopper. The glass tube was left standing in a constant temperature cabinet at 25° C. and 5 or 7 days after the treatment, dead-and-survival was observed. Mortality was calculated from the results of 3-replication test.

[2] = system: larvae of house mosquito (Culex pipiens pallens Coquillett); assay: Test Example 6: insecticidal activity to larvae of house mosquito; conditions: 120 h
Procedure: Insecticidal activity to larvae of house mosquito (Culex pipiens pallens Coquillett).
Test method: In a 200-ml beaker, was placed together with a feed 100 ml of a test composition diluted with deionized water to 10 ppm concentration. The test composition was infested with 20 first-instar larvae of house mosquito and the beaker was covered with a sheet of Japanese paper. The beaker was kept in a constant temperature cabinet at 25° C. Five days after the treatment, the dead-and-survival was inspected to calculate the mortality.

[3] = system: larvae of green rice leafhopper (Nephotettix cincticeps Uhler); assay: Test Example 5: activity against larvae of green rice leafhopper; conditions: 168 h, 400 ppm, second-instar larvae, 25° C., seven days after treatment, read-out: Mortality
Procedure: Activity against larvae of green rice leafhopper (Nephotettix cincticeps Uhler).
Testing method: Five rice seedlings of the 1.5 leaf age were dipped in a test composition of 400 ppm concentration for 30 seconds. After air-drying, the seedlings were placed in a glass tube containing 1 ml of water and infested with five second-instar larvae of green rice leafhopper. The glass tube was left standing in a constant temperature cabinet at 25° C. Seven days after the treatment, dead-and-survivalwas inspected to calculate the mortality (3-replication test).

[4] = system: two-spotted spider mite (Tetranychus urticae Koch); assay: Test Example 3: activity to two-spotted spider mite; conditions: 120 h, 1,000 ppm, 5 days after treatment
From the text: Activity to two-spotted spider mite (Tetranychus urticae Koch).
Testing method: Two-spotted spider mites were set free on the pot-planted soybean in a greenhouse. On the next day, a test composition of 1,000 ppm concentration was sprayed over the soybean by means of a spray gun. Two days or five days after the treatment, dead-and-survival was inspected to calculate the mortality.

[5] = system: larvae of white-backed planthopper (Sogatella furcifera Horvath); assay: Test Example 2: insecticidal activity against larvae of white-backed planthopper; conditions: 168 h, 400 ppm, first-instar larvae, 25° C., seven days after treatment, read-out: Mortality
Procedure: Insecticidal activity against larvae of white-backed planthopper (Sogatella furcifera Horvath).
as §1, with “first-instar” for “third-instar”, “white-backed” for “brown”, “seven” for “5 or 7”

[6] = system: larvae of 28-spotted lady beetle (Epilachna vigintioctopunctana Fabricius); assay: Test Example 8: insecticidal activity against larvae of 28-spotted lady beetle; conditions: 120 h
Procedure: Insecticidal activity against larvae of 28-spotted lady beetle (Epilachna vigintioctopunctana Fabricius).
Testing method: Leaflets of tomato grown in a greenhouse were dipped in a test composition of 100 ppm concentration for 30 seconds and after that the leaflets were dried by air. In a Petri dish covered on the bottom with a piece of filter paper, were introduced 1 ml of water and three treated tomato leaflets. After having been infested with seven second-instar larvae of 28-spotted lady beetle, the Petri dish was left standing in a constant temperature cabinet at 25° C. Five days after the treatment, the dead-and-survival was inspected to calculate the mortality (2-replication test).

[7] = 100 ppm, second-instar larvae, 25° C., five days, read-out: Mortality

Work on Cc1ccccc1N1CSC(=NC(C)(C)C)N(C(C)C)C1=O [Compound 302] yielded a mortality at 400 ppm [1] of 100%, a mortality at 10 ppm [2] of 100% and a mortality at 400 ppm [3] of 100%. The mortality at 1000 ppm [4] was 70%, the mortality at 400 ppm [5] was 100% and the mortality at 100 ppm [6] was 80%.

Compound CCN1C(=O)N(c2ccc(Cl)c(Cl)c2)CSC1=NC(C)(C)C [Compound 418] has a mortality at 400 ppm [1] of 60%, a mortality at 1000 ppm [4] of 70% and a mortality at 100 ppm [6, 7] of 70%.

CCC(C)N1C(=O)N(c2ccccc2C)CSC1=NC(C)(C)C (stereo not shown) [Compound 303] showed a mortality at 400 ppm [1] of 100%, a mortality at 400 ppm [3] of 100% and a mortality at 1000 ppm [4] of 80%. For the same compound, the mortality at 400 ppm [5] was 100% and the mortality at 100 ppm [6] was 100%.

Cc1cccc(N2CSC(=NC(C)C)N(C(C)C)C2=O)c1 [Compound 325] was tested, and the mortality at 400 ppm [1] was 100%, the mortality at 10 ppm [2] was 100% and the mortality at 400 ppm [3] was 100%. The mortality at 400 ppm [5] was 100% and the mortality at 100 ppm [6] was 100%.

In the case of CCCN1C(=O)N(c2cc(Cl)cc(Cl)c2)CSC1=NC(C)C [Compound 405], the mortality at 100 ppm [6] is reported as 90%.

CC(C)N1C(=O)N(c2cccc(Cl)c2)CSC1=NC(C)(C)C [Compound 221, 2-t-Butylimino-3-isopropyl-5-(m-chlorophenyl)-tetrahydro-1,3,5-thiadiazin-4-one] showed a mortality at 400 ppm [1] of 100%, a mortality at 10 ppm [2] of 100% and a mortality at 400 ppm [3] of 100%. The mortality at 1000 ppm [4] was 100%, the mortality at 400 ppm [5] was 100% and the mortality at 100 ppm [6] was 90%.

CCCCN=C1SCN(c2ccccc2)C(=O)N1CCCC [Compound 146] showed a mortality at 10 ppm [2] of 100% and a mortality at 100 ppm [6] of 100%.

With CC(C)N1C(=O)N(c2ccccc2Cl)CSC1=NC(C)(C)C [Compound 245, 2-t-butylimino-3-isopropyl-5-(o-chlorophenyl)-tetrahydro-1,3,5-thiadiazin-4-one] the mortality at 400 ppm [1] was 100%, the mortality at 10 ppm [2] was 100% and the mortality at 400 ppm [3] was 100%. The mortality at 1000 ppm [4] was 100%, the mortality at 400 ppm [5] was 100% and the mortality at 100 ppm [6] was 90%.

Compound CCC(C)N1C(=O)N(c2ccc(OC)cc2)CSC1=NC(C)(C)C (stereo not shown) [Compound 355, 2-t-butylimino-3-s-butyl-5-(p-methoxyphenyl)-tetrahydro-1,3,5-thiadiazin-4-one] has a mortality at 400 ppm [1] of 100%, a mortality at 10 ppm [2] of 90% and a mortality at 400 ppm [3] of 100%. It also gave a mortality at 1000 ppm [4] of 100%, a mortality at 400 ppm [5] of 100% and a mortality at 100 ppm [6] of 100%.

CCC(C)N=C1SCN(c2ccccc2)C(=O)N1c1ccccc1 (stereo not shown) [Compound 163, 2-s-Butylimino-3,5-diphenyl-tetrahydro-1,3,5-thiadiazin-4-one] gave a mortality at 100 ppm [6, 7] of 60%.

Work on COc1ccc(N2CSC(=NC(C)C)N(C(C)C)C2=O)cc1 [Compound 352] yielded a mortality at 400 ppm [1] of 100%, a mortality at 10 ppm [2] of 100% and a mortality at 400 ppm [3] of 100%. It also gave a mortality at 400 ppm [5] of 100% and a mortality at 100 ppm [6] of 100%.

COc1ccc(N2CSC(=NC(C)(C)C)N(C(C)C)C2=O)cc1 [Compound 353, 2-t-Butylimino-3-isopropyl-5-(p-methoxyphenyl)tetrahydro-1,3,5-thiadiazin-4-one] gave a mortality at 400 ppm [1] of 100%, a mortality at 10 ppm [2] of 100% and a mortality at 400 ppm [3] of 100%. The mortality at 1000 ppm [4] was 100%, the mortality at 400 ppm [5] was 100% and the mortality at 100 ppm [6] was 100%.

Compound CCC(C)N1C(=O)N(c2ccc(F)cc2)CSC1=NC(C)(C)C (stereo not shown) [Compound 284] has a mortality at 400 ppm [1] of 100%, a mortality at 10 ppm [2] of 100% and a mortality at 400 ppm [3] of 100%. It also gave a mortality at 1000 ppm [4] of 100%, a mortality at 400 ppm [5] of 100% and a mortality at 100 ppm [6] of 100%.

C=CCN1C(=O)N(c2cc(Cl)cc(Cl)c2)CSC1=NC(C)C [Compound 412, 2-Isopropylimino-3-allyl-5-(3,5-dichlorophenyl)-tetrahydro-1,3,5-thiadiazin-4-one] gave a mortality at 400 ppm [1] of 100%, a mortality at 1000 ppm [4] of 100% and a mortality at 100 ppm [6] of 100%.

With CCC(C)N1C(=O)N(c2cccc(Cl)c2)CSC1=NC(C)(C)C (stereo not shown) [Compound 225, 2-t-Butylimino-3-s-butyl-5-(m-chlorophenyl)-tetrahydro-1,3,5-thiadiazin-4-one] the mortality at 400 ppm [1] was 100%, the mortality at 10 ppm [2] was 100% and the mortality at 400 ppm [3] was 90%. It also gave a mortality at 1000 ppm [4] of 100% and a mortality at 400 ppm [5] of 100%.

CCN=C1SCN(c2cc(Cl)cc(Cl)c2)C(=O)N1CC [Compound 404] gave a mortality at 1000 ppm [4] of 100% and a mortality at 100 ppm [6] of 90%.

CCC(C)N1C(=O)N(c2ccc(Cl)cc2)CSC1=NC(C)(C)C (stereo not shown) [Compound 198] gave a mortality at 400 ppm [1] of 100%, a mortality at 10 ppm [2] of 100% and a mortality at 400 ppm [3] of 100%. It also gave a mortality at 1000 ppm [4] of 100%, a mortality at 400 ppm [5] of 100% and a mortality at 100 ppm [6] of 100%.

Work on CN=C1SCN(c2ccc(Br)cc2)C(=O)N1C [Compound 291] yielded a mortality at 400 ppm [1] of 100%, a mortality at 10 ppm [2] of 70% and a mortality at 400 ppm [3] of 100%. For the same compound, the mortality at 1000 ppm [4] was 100%, the mortality at 400 ppm [5] was 100% and the mortality at 100 ppm [6] was 100%.

Compound CCC(C)N1C(=O)N(c2cccc(C)c2)CSC1=NC(C)(C)C (stereo not shown) [Compound 328] has a mortality at 400 ppm [1] of 90%, a mortality at 10 ppm [2] of 100% and a mortality at 400 ppm [3] of 100%. For the same compound, the mortality at 1000 ppm [4] was 100%, the mortality at 400 ppm [5] was 100% and the mortality at 100 ppm [6] was 100%.

CCCCN1C(=O)N(c2ccccc2)CSC1=NC(C)C [Compound 147] gave a mortality at 400 ppm [1] of 100%, a mortality at 10 ppm [2] of 100% and a mortality at 100 ppm [6] of 100%.

Work on CCC(C)N=C1SCN(c2ccc(F)cc2)C(=O)N1C(C)CC (stereo not shown) [Compound 283] yielded a mortality at 400 ppm [1] of 100%, a mortality at 10 ppm [2] of 70% and a mortality at 400 ppm [3] of 90%. For the same compound, the mortality at 1000 ppm [4] was 70%, the mortality at 400 ppm [5] was 100% and the mortality at 100 ppm [6] was 90%.

In the case of CC(C)N1C(=O)N(c2ccc(Cl)cc2Cl)CSC1=NC(C)(C)C [Compound 399], the mortality at 400 ppm [1] is reported as 100%, the mortality at 1000 ppm [4] is reported as 80% and the mortality at 100 ppm [6] is reported as 100%.

CC(C)N=C1SCN(c2ccc(Cl)c(Cl)c2)C(=O)N1Cc1ccccc1 [Compound 422] showed a mortality at 400 ppm [1] of 60%, a mortality at 1000 ppm [4] of 100% and a mortality at 100 ppm [6] of 90%.

CC(C)N=C1SCN(c2cccc(Cl)c2)C(=O)N1C(C)C [Compound 220] showed a mortality at 400 ppm [1] of 100%, a mortality at 10 ppm [2] of 80% and a mortality at 400 ppm [3] of 100%. For the same compound, the mortality at 400 ppm [5] was 100% and the mortality at 100 ppm [6] was 100%.

Compound CCC(C)N=C1SCN(c2cc(Cl)cc(Cl)c2)C(=O)N1C(C)CC (stereo not shown) [Compound 411] has a mortality at 400 ppm [1] of 60%, a mortality at 1000 ppm [4] of 100% and a mortality at 100 ppm [6] of 100%.

CC(C)N=C1SCN(c2ccc(Cl)cc2Cl)C(=O)N1C(C)C [Compound 398] gave a mortality at 400 ppm [1] of 100%, a mortality at 1000 ppm [4] of 80% and a mortality at 100 ppm [6] of 80%.

In the case of CCCN1C(=O)N(c2ccc(C)cc2)CSC1=NC(C)C [Compound 314], the mortality at 400 ppm [1] is reported as 100%, the mortality at 10 ppm [2] is reported as 100% and the mortality at 1000 ppm [4] is reported as 100%. For the same compound, the mortality at 100 ppm [6] was 100%.

Work on CC(C)N1C(=O)N(c2ccc([N+](=O)[O-])cc2)CSC1=NC(C)(C)C [Compound 364] yielded a mortality at 400 ppm [1] of 100%, a mortality at 1000 ppm [4] of 60% and a mortality at 100 ppm [6] of 80%.

In the case of CC(C)N=C1SCN(c2ccccc2Cl)C(=O)N1C(C)C [Compound 244, 2-Isopropylimino-3-isopropyl-5-(o-chlorophenyl)-tetrahydro-1,3,5-thiadiazin-4-one], the mortality at 400 ppm [1] is reported as 100%, the mortality at 10 ppm [2] is reported as 100% and the mortality at 400 ppm [3] is reported as 100%. For the same compound, the mortality at 1000 ppm [4] was 70% and the mortality at 400 ppm [5] was 100%.

With CC(C)N=C1SCN(c2ccc(F)cc2)C(=O)N1C(C)C [Compound 285] the mortality at 400 ppm [1] was 100%, the mortality at 10 ppm [2] was 100% and the mortality at 400 ppm [3] was 100%. For the same compound, the mortality at 1000 ppm [4] was 100%, the mortality at 400 ppm [5] was 100% and the mortality at 100 ppm [6] was 80%.

Source: patent US4159328A, “Tetrahydro-1,3,5-thiadiazin-4-one derivative” (Nihon Nohyaku Co., Ltd., priority 1977, dated 1979)
